According to patent US4567201A, “Diphenoxypropane derivatives and compositions of antiasthmatic and antiinflammatory agents thereof” (Takeda Chemical Industries, Ltd., priority 1981, dated 1986):
Read-outs that look alike come from different tables or passages of the source.

Experiments:
[1] = test system: leukotriene D4 (LTD4)-induced contraction of the guinea pig ileum; assay: Anti-SRS-A activity: inhibition of LTD4-induced contraction of guinea pig ileum; conditions: 50% inhibition of LTD4-induced contraction (60-70% of maximum contraction), drug added 1 minute before LTD4
Description: The present inventors studied the antagonistic action of compound (I)-A against SRS-A using a synthetic LTD4 in the following manner.
The inhibitory effect of the drug on the contractile response (60-70% of maximum contraction) of the ileum of guinea pig (body weight 300-350 g, female and male) to leukotriene D4 (LTD4) was investigated. In Tyrode solution containing atropine (10^-7 M) and mepyramine (10^-6 M), 3×10^-10 or 10^-9 M of LTD4 was repeatedly permitted to act on the guinea pig ileum and after the amplitude of contraction had become constant, a solution of the test drug was added to a final concentration of 10^-9 to 10^-4 M. After 1 minute, the same concentration of LTD4 was further added and the anti-SRS-A activity of the drug was calculated from the change in contraction amplitude by means of the following equation. [formula]
To obtain the IC50 value, the mole concentration of the drug showing a 50% inhibition of the contractile response was determined from plots on a graph.
The drug was used as dissolved in dimethyl sulfoxide. The solvent was used in an amount less than 1% which would not exert any influence on the ileum.

[2] = test system: bronchoconstriction due to leukotriene D4 (LTD4); assay: Inhibition of bronchoconstriction due to intravenous LTD4 in guinea pigs (Konzett-Rossler); assay type: in vivo, guinea pig (Hartley strain); conditions: for % Inhibition, Experiment 1: 2 minutes before LTD4 10 μg/kg i.v.; for % Inhibition, Experiment 1 / % Inhibition, Experiment 2: 30 seconds after LTD4; for % Inhibition, Experiment 2: 30 minutes before LTD4 10 μg/kg i.v.; for minimal effective dose: Cavia porcellus, iv, dose causing statistically significant difference vs control group, significance level <5%; for inhibitory effect upon the bronchoconstriction compared with Control compound-1 (in words): LTD4, i.v.
Procedure: Guinea pigs of Hartley strain, both male and female, with body weights about 400 g were assigned to groups of 6 individuals, and the bronchoconstriction due to LTD4 were measured according to the method of Konzett-Rossler, [Konzett, H. and Rossler, R.: Naunyn-Schmiedebergs Archiv Fur Experimentelle Pathologie und Pharmakologie 195, 71-74 (1940)]. Each guinea pig was fixed in supine position under urethane anesthesia (1.5 g/kg, intraperitoneal) and the trachea was incised and connected to an artificial respiration apparatus, Rodent Respirator Model 680 [Harvard Apparatus Company, U.S.A.] via a cannula. The branch tube of this tracheal cannula was connected to Bronchospasm Transducer Model 7020 [Ugobasil Biological Research Apparatus, Italy]. Under the conditions of 5 to 7 ml of air per stroke, 70 strokes per minute and a lung loading pressure of 10 cmH2 O, the volume of overflowing air was recorded on Rectigraph-8S (Sanei Sokki Ltd., Japan) via a transducer. After administration of gallamine triethiodide (1 mg/kg, i.v.), 10 μ g/kg of histamine.2HCl was intravenously administered to investigate the response of the animal. Then, a solution of LTD4 in physiological saline (10 μg/kg) was intravenously administered and the bronchoconstriction elicited thereby was recorded for 15 minutes. Two minutes before LTD4 loading, compound (I)-A-1 was intravenously administered in a volume of 0.1 ml per 100 g body weight. Compound (I)-A-1 and LTD4 were administered through a cannula inserted into the jugular vein.
The compound (I)-A-1 was used as dissolved in physiological saline containing sodium hydrogen carbonate, and LTD4 was taken from a stock stored in methanol (1 mg/1 ml methanol) at -70° C.
The bronchoconstriction induced by intravenous administration of 10 μg/kg of LTD4 as given 2 minutes after the administration of physiological saline was maximal at the time of 30 seconds after the administration of LTD4 and, since then, was rapidly attenuated to about 50% at the time of 2 minutes but lasted till 15 minutes. Assuming that the response at complete obstruction is 100%, the values at 30 seconds and 15 minutes were 47.4±6.9% (n=6, Mean±S.E.) and 19.4±2.8% (Mean±S.E.), respectively (S.E.: standard error).
Then the present inventors studied the antagonistic action of the compound (I)-B against SRS-A using a synthetic LTD4 in the manner described on the compound (I)-A.
In each case, the bronchoconstriction following intravenous administration of 10 μg/kg of LTD4 at 2 or 30 minutes after the administration of physiological saline reached a maximum 30 seconds after the administration of LTD4, and then decreased to about 50% at 2 minutes after the administration of LTD4. The response continued for 15 minutes after the administration of LTD4. Repeated experiments using 6 animals per group gave mean degrees of maximum bronchoconstriction (30-second values) of 52.2-67.1% and 54.7-70.1%, respectively, as compared with the state of complete obstruction (100%). In experiment 1, the test compounds (I)-B-1, (I)-B-2 and Control compound-1 were each intravenously administered at two minutes before the administration of LTD4 and inhibitory effect on the bronchoconstriction was examined. The minimum effective doses (causing statistically significant differences as compared with the control group; significance level <5%) were 0.313, 0.313 and 5 mg/kg, respectively. The corresponding inhibition percentages were 41, 52 and 56%, respectively. In experiment 2, the test compounds were intravenously administered 30 minutes before the administration of LTD4 and the effect on the above response was examined. The minimum effective doses were 5, 5, and 20 mg/kg, respectively.
The test compounds were intravenously administered 2 minutes before the
intravenous administration of 10 μg/kg of LTD4.
The test compounds were intravenously administered 30 minutes before the
Each value was calculated from the volume (in percentage) of air […]

Acute toxicity in mice = assay type: in vivo, mouse (Jcl:ICR strain); conditions: 500 mg/kg oral; for Autopsy findings: after 7 days; for symptoms attributable to compound after oral administration: male mice
Procedure: Five 5-week-old male mice of Jcl:ICR strain, weighing 26.0 to 30.5 g, were used. Compound (I)-A-1 was suspended in a 5% solution of gum arabic and administered orally by gastric gavage at the level of 0.2 ml per 10 grams body weight.
Five 5-week-old male mice of Jcl:ICR strain, weighing 26.0 to 30.5 g, were used. Compound (I)-B-1 or (I)-B-2 was suspended in a 5% solution of gum arabic and administered orally by gastric gavage at the level of 0.2 ml per 10 grams body weight.

[3] = test system: antigen-induced bronchoconstriction; assay: Antigen-induced bronchoconstriction in sensitized guinea pigs; assay type: in vivo, guinea pig (Hartley strain); conditions: for % Inhibition: 2 minutes prior to antigen (EA 1 mg/kg i.v.), one minute after antigen; for minimal effective dose: Cavia porcellus, iv, 2 minutes prior to antigen administration, read-out: minimum effective dose; for inhibitory effect on the antigen-induced bronchoconstriction compared with Control compound-1 (in words): i.v., 2 minutes prior to antigen
Procedure: According to the method of Orange and Moore [Orange, R. P. and Moore, E. G., Journal of Immunology, 116, 392-397 (1976)], Hartley-strain male guinea pigs weighing about 350 g were sensitized by intraperitoneal administration of 1 ml of an emulsion composed of 0.5 ml of physiological saline containing 1 mg of egg alubumin (EA) and 0.5 ml of Freund's complete adjuvant (Difco, USA). Three weeks after the sensitization, the serum antibody levels in the sensitized guinea pigs were determined by the 3-hour PCA reaction in guinea pigs and those guinea pigs that gave positive results in the PCA reaction with 1,000-fold diluted serum samples therefrom were used as the sensitized aminals. Using the Konzett-Rossler method as mentioned under the above paragraph (i), the bronchoconstriction due to the antigen-antibody reaction was induced by intravenous administration of 1 mg/kg of the antigen EA instead of LTD4, and recorded.
The bronchoconstriction in the control group as induced by antigen administration 2 minutes after the intravenous administration of physiological saline reached a maximum one minute after the intravenous administration of the antigen. Gradual recovery followed and the pretreatment state was almost restored in 15 minutes after the induction. Repeated experiments using 6 animals per group gave mean degrees of maximum bronchoconstriction (one-minute values) of 72.8-83.3% as compared with the state of complete obstruction (100%). The test compounds (I)-B-1, (I)-B-2 and Control compound-1 were each intravenously administered 2 minutes prior to antigen administration and the inhibitory effect on the bronchoconstriction was examined. The minimum effective doses were 5, 5 and 20 mg/kg, respectively, and the corresponding inhibition percentages were 51, 52 and 64%, respectively.
The test compounds were intravenously administered 2 minutes prior to
intravenous administration of the antigen.
Each value was calculated from the volume (in percentage) of air
overflowing from the respiratory tract at the time when the response was
maximal, i.e. one minute after administration of the antigen.

[4] = 1.25 mg/kg i.v., **P<0.01 for (I)-B-1 and (I)-B-2
[5] = 5 mg/kg i.v., P<0.001 for (I)-B-1 and Control compound-1, P<0.01 for (I)-B-2
[6] = 5 mg/kg i.v., **P<0.01 for (I)-B-1 and (I)-B-2
[7] = 20 mg/kg i.v., P<0.001 for (I)-B-1 and (I)-B-2, P<0.01 for Control compound-1
[8] = 30 minutes before LTD4, read-out: minimum effective dose, experiment 2
[9] = two minutes before LTD4, read-out: minimum effective dose, experiment 1
[10] = 5 mg/kg i.v., p<0.001 for (I)-B-1, p<0.01 for (I)-B-2

Row | Structure (SMILES) | IC50 [1] [nM] | % Inhibition, Experiment 1 ([2]; 0.313 mg/kg i.v., *P<0.05) [%] | % Inhibition, Experiment 1 [2, 4] [%] | % Inhibition, Experiment 2 ([2]; 1.25 mg/kg i.v.) [%] | % Inhibition, Experiment 1 [2, 5] [%] | % Inhibition, Experiment 2 [2, 6] [%] | % Inhibition, Experiment 2 [2, 7] [%] | minimal effective dose [2, 8] [mg/kg] | minimal effective dose [2, 9] [mg/kg] | inhibitory effect upon the bronchoconstriction compared with Control compound-1 (in words) [2] | Autopsy findings (Acute toxicity in mice) | symptoms attributable to compound after oral administration (Acute toxicity in mice) | % Inhibition ([3]; 1.25 mg/kg i.v.) [%] | % Inhibition [3, 10] [%] | % Inhibition ([3]; 20 mg/kg i.v., ***p<0.001) [%] | minimal effective dose [3] [mg/kg] | inhibitory effect on the antigen-induced bronchoconstriction compared with Control compound-1 (in words) [3] | % Inhibition, Experiment 1 ([2]; 20 mg/kg i.v., ***P<0.001) [%]
1 | CCCc1c(OCCCOc2ccc(-c3nnn[nH]3)cc2Cl)ccc(C(C)=O)c1O [Compound (I)-A-3, 1-(4-acetyl-3-hydroxy-2-n-propylphenoxy)-3-[2-chloro-4-(tetrazol-5-yl)phenoxy]propane] | 70 | – | – | – | – | – | – | – | – | – | – | – | – | – | – | – | – | –
2 | CCCc1c(OCCCOc2cccc(-c3nn[nH]n3)c2)ccc(C(C)=O)c1O [Control compound-2, reference compound] | 680 | – | – | – | – | – | – | – | – | – | – | – | – | – | – | – | – | –
3 | CCCc1c(OCCCOc2ccc(C(=O)O)cc2Cl)ccc(C(C)=O)c1O [Compound (I)-B-2, 4-[3-(4-acetyl-3-hydroxy-2-n-propylphenoxy)propoxy]-3-chlorobenzoic acid] | – | 52 | 77 | 10 | 79 | 42 | 66 | 5 | 0.313 | superior to Control compound-1 | did not reveal any abnormalities | no symptoms | 20 | 52 | 88 | 5 | superior to Control compound-1 | –
4 | CCCc1c(OCC(O)COc2ccc(-c3nn[nH]n3)cc2Br)ccc(C(C)=O)c1O (stereo not shown) [Compound (I)-A-2, 2-hydroxy-3-propyl-4-[2-hydroxy-3-[2-bromo-4-(tetrazol-5-yl)phenoxy]propoxy]acetophenone] | 19 | – | – | – | – | – | – | – | – | – | – | – | – | – | – | – | – | –
5 | CCCc1c(OCC(O)COc2ccc(C(=O)O)cc2Cl)ccc(C(C)=O)c1O (stereo not shown) [Compound (I)-B-1, 4-[3-(4-acetyl-3-hydroxy-2-n-propylphenoxy)-2-hydroxypropoxy]-3-chlorobenzoic acid] | – | 41 | 51 | – | 84 | 42 | 96 | 5 | 0.313 | superior to Control compound-1 | did not reveal any abnormalities | no symptoms | 6 | 51 | 75 | 5 | superior to Control compound-1 | –
6 | CCCc1c(OCCCOc2ccc(C(=O)O)c(O)c2)ccc(C(C)=O)c1O [Control compound-1, reference compound] | 420 | – | 14 | – | 56 | 14 | 35 | 20 | 5 | – | – | – | 12 | 16 | 64 | 20 | – | 87
